According to patent publication US20220135538A1, “P300/CBP HAT INHIBITORS AND METHODS FOR THEIR USE” (Constellation Pharmaceuticals, Inc., priority 2019, published 2022):

Assays:
[1] = biological target: T1, p300 HAT domain (residues 1287-1666) (Homo sapiens, UniProt Q09472); assay: P300 HAT SPA assay (scintillation proximity, acetylation of biotinylated H3(1-21) peptide); type: biochemical; details: 6 nM p300-HAT domain; average of at least 2 replicate titrations
T1 construct: The p300 HAT domain (residues 1287-1666) was expressed; His tag (N); made in house; host or cells: Escherichia coli
T1 sequence (Q09472 1287-1666): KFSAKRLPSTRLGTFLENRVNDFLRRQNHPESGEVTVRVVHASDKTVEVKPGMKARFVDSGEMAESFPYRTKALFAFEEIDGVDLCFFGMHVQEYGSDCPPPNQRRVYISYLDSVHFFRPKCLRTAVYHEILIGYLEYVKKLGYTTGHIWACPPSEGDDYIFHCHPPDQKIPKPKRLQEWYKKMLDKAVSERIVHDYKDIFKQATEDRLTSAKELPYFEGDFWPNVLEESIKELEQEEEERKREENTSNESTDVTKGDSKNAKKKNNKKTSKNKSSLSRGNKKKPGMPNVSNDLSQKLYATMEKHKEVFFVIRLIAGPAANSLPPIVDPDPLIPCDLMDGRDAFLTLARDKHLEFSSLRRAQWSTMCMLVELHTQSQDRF
Description: The activity of the compounds described herein as p300/CBP HAT inhibitors may be readily determined using a scintillation proximity assay (SPA) methodology (Udenfriend, S.; Gerber, L.; Nelson, N. Scintillation Proximity Assay: A Sensitive and Continuous Isotopic Method for Monitoring Ligand/Receptor and Antigen/Antibody Interactions. Anal. Biochem. 1987, 161, 494-500).
In a typical experiment the p300 HAT inhibitory activity of the compounds described herein was determined in accordance with the following experimental method.
The p300 HAT domain (residues 1287-1666) was expressed and purified with an N-terminal His tag from Escherichia coli cells. The expressed protein was purified by Ni2+affinity, followed by anion exchange chromatography. Appropriate fractions were pooled and buffer exchanged into 20 mM Hepes pH 7.5, 150 mM NaCl, and 1 mM TCEP.
(§1) Compounds of interest solubilized in DMSO were stamped in a Greiner black 384-well plate in a 10-point duplicate dose response using an Echo 550 (Labcyte). p300-HAT domain purified in-house (aa 1287-1666) was diluted to 6 nM in reaction buffer (50 mM Tris pH 8.0, 100 mM NaCl, 1 mM DTT, 0.069 mM Brij-35, 0.1 mM EDTA, 0.1 mg/mL BSA), combined with 4.14 μM AcCoA (Sigma-Aldrich) and 0.46 μM ^3H-AcCoA (PerkinElmer), and 12.5 μL added to each well and incubated for 30 min at RT. Reactions were initiated with 12.5 μL 2 μM biotinylated H3(1-21) peptide (New England Peptide) and run for 1 hr at RT, then quenched with 20 μL stop solution (200 mM Tris pH 8.0, 200 mM EDTA, 2M NaCl, 160 μM anacardic acid). 35 μL of the reaction volume was transferred to a 384-well streptavidin FlashPlate (PerkinElmer) using a Bravo liquid handler (Velocity 11) and incubated for 1.5 hr at RT. Plates were aspirated, washed with 95 μL wash buffer (15 mM Tris pH 8.5, 0.069 μM Brij-35), aspirated, sealed, and scintillation counts read on a Topcount (PerkinElmer). Data were analyzed in Genedata to determine inhibitor IC50 values.

full length p300 = biological target: T2, full length p300 (Homo sapiens, UniProt Q09472); assay: Full length p300 SPA assay; type: biochemical; details: 6 nM purified full length p300; read-out: FL P300 IC50
T2 construct: used 6 nM purified full length p300 (purchased from Active Motif); purchased Active Motif
Description: as §1
The full length p300 SPA assay was run following the same protocol as p300 HAT SPA assay, but used 6 nM purified full length p300 (purchased from Active Motif) in place of the purified p300-HAT domain.

[2] = test system: acetylation of chromatin at H3K18 in HCT-116 cells; assay: H3K18Ac MSD cellular assay; type: cell-based; details: Homo sapiens, 2 hr treatment
Description: Select compounds were also evaluated in a H3K18Ac MSD cellular assay that measures the ability of compounds to inhibit the acetylation of chromatin at H3K18, a process catalyzed by p300 and CBP. In a typical experiment the p300 HAT inhibitory activity inside cells of the compounds described herein was determined in accordance with the following experimental method. 20 k HCT-116 cells per well are plated in 75 μL RPMI+10% FBS media the night before treatment. Compounds plated in DMSO at 4× final concentration are resuspended in 30 μL RPMI+10% FBS, then 25 μL is combined with corresponding wells containing cells. Treated cells are incubated for 2 hr at 37° C., then lysed in 500 μL final volume and frozen at −80° C. MSD plates (Meso Scale Discovery) are coated overnight at 4° C. with 60 μL 1:500 α-total histone antibody (Millipore MAB3422) in PBS. Plates are then blocked with 5% BSA in TBST shaking at RT for 1 hr, washed, and 30 μL lysate added to each well for 2 hr shaking at RT. Plates are washed and 25 μL 1:216 α-H3K18ac antibody (CST 9675) in PBS added, then incubated for 1 hr shaking at RT. Plates are washed again, then 25 μL 1:1000 Sulfo-Tag goat α-rabbit antibody (Meso Scale Discovery R32Ab-1) in PBS is added for 1 hr shaking at RT. Plates are washed once more, then 150 μL 1× Read Buffer (MSD #R92TD-3) is added to all wells and read on MSD SECTOR Imager 2400 using the conventional read setup.

T2 sequence (Q09472 whole entry): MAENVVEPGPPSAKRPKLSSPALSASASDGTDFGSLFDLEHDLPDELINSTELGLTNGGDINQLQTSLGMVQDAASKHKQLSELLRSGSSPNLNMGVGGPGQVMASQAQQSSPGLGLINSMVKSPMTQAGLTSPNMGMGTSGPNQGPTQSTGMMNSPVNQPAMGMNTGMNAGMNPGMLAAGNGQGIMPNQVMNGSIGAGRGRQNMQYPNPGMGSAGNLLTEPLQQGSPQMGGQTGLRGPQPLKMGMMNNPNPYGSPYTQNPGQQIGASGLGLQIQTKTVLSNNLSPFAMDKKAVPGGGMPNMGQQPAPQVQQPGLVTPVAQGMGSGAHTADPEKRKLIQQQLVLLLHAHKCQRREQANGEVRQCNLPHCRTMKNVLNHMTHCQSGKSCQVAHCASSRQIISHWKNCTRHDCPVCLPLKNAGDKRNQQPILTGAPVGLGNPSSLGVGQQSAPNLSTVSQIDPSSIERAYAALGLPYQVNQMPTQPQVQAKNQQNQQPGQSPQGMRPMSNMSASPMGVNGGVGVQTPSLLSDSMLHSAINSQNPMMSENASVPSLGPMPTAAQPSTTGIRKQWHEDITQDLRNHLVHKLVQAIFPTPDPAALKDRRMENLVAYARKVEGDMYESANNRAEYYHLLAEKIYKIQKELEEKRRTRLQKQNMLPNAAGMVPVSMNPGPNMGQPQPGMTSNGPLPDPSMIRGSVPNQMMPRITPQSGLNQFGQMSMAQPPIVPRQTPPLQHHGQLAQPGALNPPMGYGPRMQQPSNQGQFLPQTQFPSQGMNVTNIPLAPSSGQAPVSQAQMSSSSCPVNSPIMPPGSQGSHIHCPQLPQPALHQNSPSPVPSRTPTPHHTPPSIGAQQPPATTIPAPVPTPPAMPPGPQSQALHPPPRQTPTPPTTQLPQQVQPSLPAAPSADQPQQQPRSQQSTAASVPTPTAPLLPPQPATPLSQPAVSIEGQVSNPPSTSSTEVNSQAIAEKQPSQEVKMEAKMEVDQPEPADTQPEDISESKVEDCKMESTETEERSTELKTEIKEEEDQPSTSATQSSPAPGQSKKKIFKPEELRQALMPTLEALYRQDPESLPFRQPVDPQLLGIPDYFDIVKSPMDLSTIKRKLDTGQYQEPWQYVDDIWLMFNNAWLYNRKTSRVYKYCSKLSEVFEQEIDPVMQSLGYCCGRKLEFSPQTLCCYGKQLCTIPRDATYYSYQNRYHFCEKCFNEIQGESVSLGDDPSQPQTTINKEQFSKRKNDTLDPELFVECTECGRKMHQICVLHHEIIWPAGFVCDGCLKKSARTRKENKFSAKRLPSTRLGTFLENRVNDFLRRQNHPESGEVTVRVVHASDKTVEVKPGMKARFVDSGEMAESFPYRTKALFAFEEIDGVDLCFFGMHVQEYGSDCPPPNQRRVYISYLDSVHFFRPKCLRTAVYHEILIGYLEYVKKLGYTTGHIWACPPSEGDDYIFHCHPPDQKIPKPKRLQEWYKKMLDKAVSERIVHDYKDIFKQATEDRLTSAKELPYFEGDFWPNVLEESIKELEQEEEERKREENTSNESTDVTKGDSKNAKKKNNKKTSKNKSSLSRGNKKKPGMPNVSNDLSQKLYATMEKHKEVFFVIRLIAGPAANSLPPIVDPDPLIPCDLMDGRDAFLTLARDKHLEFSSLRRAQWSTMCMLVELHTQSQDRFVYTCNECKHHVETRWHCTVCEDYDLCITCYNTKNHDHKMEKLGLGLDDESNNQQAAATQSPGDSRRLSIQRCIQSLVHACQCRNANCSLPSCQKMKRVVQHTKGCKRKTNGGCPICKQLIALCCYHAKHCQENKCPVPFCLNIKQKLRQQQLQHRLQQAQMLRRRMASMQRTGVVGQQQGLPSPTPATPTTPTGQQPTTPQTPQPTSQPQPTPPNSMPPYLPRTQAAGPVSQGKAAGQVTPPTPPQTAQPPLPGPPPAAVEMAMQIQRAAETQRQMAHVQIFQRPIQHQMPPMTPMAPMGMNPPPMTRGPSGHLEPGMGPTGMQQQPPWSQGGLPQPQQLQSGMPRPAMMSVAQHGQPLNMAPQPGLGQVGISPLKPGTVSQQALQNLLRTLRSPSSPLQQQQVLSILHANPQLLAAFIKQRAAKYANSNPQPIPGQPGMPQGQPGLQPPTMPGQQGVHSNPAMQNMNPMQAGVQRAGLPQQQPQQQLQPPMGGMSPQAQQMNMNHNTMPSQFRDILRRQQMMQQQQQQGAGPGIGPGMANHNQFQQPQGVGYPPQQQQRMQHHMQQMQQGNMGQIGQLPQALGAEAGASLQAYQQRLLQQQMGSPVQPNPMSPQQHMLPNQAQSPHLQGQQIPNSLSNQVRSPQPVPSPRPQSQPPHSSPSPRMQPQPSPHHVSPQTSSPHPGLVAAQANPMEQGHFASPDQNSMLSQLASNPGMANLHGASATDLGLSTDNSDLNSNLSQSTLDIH

IC50 [1]	IC50 (full length p300)	EC50 [2]	SMILES
0.0564 µM	0.00421 µM	–	CC(=O)N1CCC(Oc2ccc(NC(=O)C(NCCc3ccc(C#N)cc3)c3ccccc3)nc2)CC1 (single isomer, unassigned) [9 Isomer 1]
0.0277 µM	< 0.002 µM	0.035 µM	CN1CCC(Oc2ccc(NC(=O)C(NCCc3ccc(C#N)cc3)c3ccccc3)nc2)CC1 (single isomer, unassigned) [1 Isomer 1]
> 2 µM	0.137 µM	–	N#Cc1ccc(CCNC(C(=O)Nc2ccc(OC3CCOCC3)cn2)c2ccccc2)cc1 (single isomer, unassigned) [5 Isomer 2]
0.272 µM	–	–	CC(=O)N1CCC[C@H](Oc2ccc(NC(=O)C(NCCc3ccc(C#N)cc3)c3ccccc3)nc2)C1 (single isomer, unassigned) [15 Isomer 1]
0.578 µM	–	–	CC(=O)N1CC(Oc2ccc(NC(=O)C(NCC(C)c3ccc(C#N)cc3)c3cnn(C)c3)nc2)C1 (single isomer, unassigned) [24 Isomer 2]
0.311 µM	–	–	CC(Oc1ccc(NC(=O)C(NCCc2ccc(C#N)cc2)c2ccccc2)nc1)c1cnn(C)c1 (single isomer, unassigned) [18 Isomer 1]
> 2 µM	–	–	O=C(Nc1ccc(OCCn2cccn2)cn1)C(NCCc1ccc(Cl)cc1)c1ccccc1 (single isomer, unassigned) [7 Isomer 1]

More lines, now with the values behind:

SMILES	IC50 [1]	IC50 (full length p300)	EC50 [2]
CC(=O)N1CC(Oc2ccc(NC(=O)C(NCC(C)c3ccc(C#N)cc3)c3cccc(F)c3)nc2)C1 (single isomer, unassigned) [23 Isomer 1]	0.0233 µM	< 0.003 µM	0.0319 µM
CC(=O)N1CC(Oc2ccc(NC(=O)C(NCC(C)c3ccc(C#N)cc3)c3cnn(C)c3)nc2)C1 (single isomer, unassigned) [24 Isomer 1]	0.038 µM	< 0.003 µM	0.057 µM
N#Cc1ccc(CCNC(C(=O)Nc2ccc(OC3CCOCC3)cn2)c2ccccc2)cc1 (single isomer, unassigned) [5 Isomer 1]	0.0976 µM	0.00369 µM	–
CN1CCC(Oc2ccc(NC(=O)C(NCCc3ccc(C#N)cc3)c3ccccc3)nc2)CC1 (single isomer, unassigned) [1 Isomer 2]	> 5 µM	0.24 µM	–
CC(=O)N1CC(Oc2ccc(NC(=O)C(NC[C@@H](C)c3ccc(C#N)cc3)c3ccccc3)nc2)C1 (single isomer, unassigned) [2 Isomer 1]	0.0212 µM	< 0.002 µM	0.02 µM
Cn1cc(COc2ccc(NC(=O)C(NCCc3ccc(Cl)cc3)c3ccccc3)nc2)cn1 (single isomer, unassigned) [8 Isomer 2]	0.0168 µM	–	0.069 µM
CC(=O)N1CCC(Oc2ccc(NC(=O)C(NCCc3ccc(C#N)cc3)c3ccccc3)nc2)CC1 (single isomer, unassigned) [9 Isomer 2]	> 2 µM	0.102 µM	–
CC(CNC(C(=O)Nc1ccc(OC2CN(C(=O)C3CC3)C2)cn1)c1ccccc1)c1ccc(C#N)cc1 (single isomer, unassigned) [21 Isomer 1]	0.0274 µM	< 0.002 µM	–
CN1CC(Oc2ccc(NC(=O)C(NCCc3ccc(Cl)cc3)c3ccccc3)nc2)CCC1=O (single isomer, unassigned) [10 Isomer 1]	0.0942 µM	–	–
CC(=O)N1CC[C@@H](Oc2ccc(NC(=O)C(NCCc3ccc(C#N)cc3)c3ccccc3)nc2)C1 (single isomer, unassigned) [14 Isomer 2]	> 2 µM	–	–
CN1CC(Oc2ccc(NC(=O)C(NCCc3ccc(Cl)cc3)c3ccccc3)nc2)CCC1=O (single isomer, unassigned) [10 Isomer 4]	> 2 µM	–	–
